From ChEMBL document CHEMBL4270599, “Synthesis of a 3'-C-ethynyl-β-d-ribofuranose purine nucleoside library: Discovery of C7-deazapurine analogs as potent antiproliferative nucleosides” (Eur J Med Chem, 2018)

Columns and labels:
Type in all cases: functional
HCC 2998 [1] = assay: Growth inhibition of human HCC2998 cells assessed as cell growth at 10^-8 M incubated for 48 hrs by sulforhodamine B assay relative to control; conditions: HCC 2998, 48 h, read-out: Activity
HCT-116 = assay: Growth inhibition of human HCT116 cells assessed as cell growth at 10^-7 M incubated for 48 hrs by sulforhodamine B assay relative to control; conditions: HCT-116, 48 h, read-out: Activity
HL-60(TB) = assay: Growth inhibition of human HL-60(TB) cells assessed as cell growth at 10^-8 M incubated for 48 hrs by sulforhodamine B assay relative to control; conditions: HL-60, 48 h, read-out: Activity
TK-10 = assay: Growth inhibition of human TK10 cells assessed as cell growth at 10^-6 M incubated for 48 hrs by sulforhodamine B assay relative to control; conditions: TK-10, 48 h, read-out: Activity
NCI-H226 = assay: Growth inhibition of human NCI-H226 cells assessed as cell growth at 10^-4 M incubated for 48 hrs by sulforhodamine B assay relative to control; conditions: NCI-H226, 48 h, read-out: Activity
UACC-257 = assay: Growth inhibition of human UACC257 cells assessed as cell growth at 10^-4 M incubated for 48 hrs by sulforhodamine B assay relative to control; conditions: UACC-257, 48 h, read-out: Activity
SF-539 [2] = assay: Growth inhibition of human SF539 cells assessed as cell growth at 10^-4 M incubated for 48 hrs by sulforhodamine B assay relative to control; conditions: SF-539, 48 h, read-out: Activity
SF-295 = assay: Growth inhibition of human SF295 cells assessed as cell growth at 10^-5 M incubated for 48 hrs by sulforhodamine B assay relative to control; conditions: SF-295, 48 h, read-out: Activity
HOP-62 [3] = assay: Growth inhibition of human HOP62 cells assessed as cell growth at 10^-4 M incubated for 48 hrs by sulforhodamine B assay relative to control; conditions: HOP-62, 48 h, read-out: Activity
A549 = assay: Growth inhibition of human A549/ATCC cells assessed as cell growth at 10^-5 M incubated for 48 hrs by sulforhodamine B assay relative to control; conditions: A549, 48 h, read-out: Activity
COLO 205 = assay: Growth inhibition of human COLO205 cells assessed as cell growth at 10^-4 M incubated for 48 hrs by sulforhodamine B assay relative to control; conditions: COLO 205, 48 h, read-out: Activity
EKVX [4] = assay: Growth inhibition of human EKVX cells assessed as cell growth at 10^-4 M incubated for 48 hrs by sulforhodamine B assay relative to control; conditions: read-out: Activity
LOX IMVI [5] = assay: Growth inhibition of human LOXIMVI cells assessed as cell growth at 10^-5 M incubated for 48 hrs by sulforhodamine B assay relative to control; conditions: read-out: Activity
MDA-MB-468 = assay: Growth inhibition of human MDA-MB-468 cells assessed as cell growth at 10^-5 M incubated for 48 hrs by sulforhodamine B assay relative to control; conditions: MDA-MB-468, 48 h, read-out: Activity
A498 = assay: Growth inhibition of human A498 cells assessed as cell growth at 10^-4 M incubated for 48 hrs by sulforhodamine B assay relative to control; conditions: A498, 48 h, read-out: Activity
HOP-62 [6] = assay: Growth inhibition of human HOP62 cells assessed as cell growth at 10^-5 M incubated for 48 hrs by sulforhodamine B assay relative to control; conditions: HOP-62, 48 h, read-out: Activity
RPMI-8226 = assay: Growth inhibition of human RPMI8226 cells assessed as cell growth at 10^-5 M incubated for 48 hrs by sulforhodamine B assay relative to control; conditions: RPMI-8226, 48 h, read-out: Activity
T47D = assay: Growth inhibition of human T47D cells assessed as cell growth at 10^-6 M incubated for 48 hrs by sulforhodamine B assay relative to control; conditions: read-out: Activity
UO-31 = assay: Growth inhibition of human UO31 cells assessed as cell growth at 10^-5 M incubated for 48 hrs by sulforhodamine B assay relative to control; conditions: UO-31, 48 h, read-out: Activity
SF-539 [7] = assay: Growth inhibition of human SF539 cells assessed as cell growth at 10^-5 M incubated for 48 hrs by sulforhodamine B assay relative to control; conditions: SF-539, 48 h, read-out: Activity
LOX IMVI [8] = assay: Growth inhibition of human LOXIMVI cells assessed as cell growth at 10^-6 M incubated for 48 hrs by sulforhodamine B assay relative to control; conditions: read-out: Activity
NCI-H23 = assay: Growth inhibition of human NCI-H23 cells assessed as cell growth at 10^-4 M incubated for 48 hrs by sulforhodamine B assay relative to control; conditions: NCI-H23, 48 h, read-out: Activity
SK-OV-3 = assay: Growth inhibition of human SKOV3 cells assessed as cell growth at 10^-6 M incubated for 48 hrs by sulforhodamine B assay relative to control; conditions: SK-OV-3, 48 h, read-out: Activity
IGROV-1 = assay: Growth inhibition of human IGROV1 cells assessed as cell growth at 10^-5 M incubated for 48 hrs by sulforhodamine B assay relative to control; conditions: IGROV-1, 48 h, read-out: Activity
EKVX [9] = assay: Growth inhibition of human EKVX cells assessed as cell growth at 10^-5 M incubated for 48 hrs by sulforhodamine B assay relative to control; conditions: read-out: Activity
SK-MEL-5 = assay: Growth inhibition of human SK-MEL-5 cells assessed as cell growth at 10^-5 M incubated for 48 hrs by sulforhodamine B assay relative to control; conditions: SK-MEL-5, 48 h, read-out: Activity
786-0 = assay: Growth inhibition of human 786-0 cells assessed as cell growth at 10^-4 M incubated for 48 hrs by sulforhodamine B assay relative to control; conditions: 786-0, 48 h, read-out: Activity
LOX IMVI [10] = assay: Growth inhibition of human LOXIMVI cells assessed as cell growth at 10^-4 M incubated for 48 hrs by sulforhodamine B assay relative to control; conditions: read-out: Activity
M14 = assay: Growth inhibition of human M14 cells assessed as cell growth at 10^-4 M incubated for 48 hrs by sulforhodamine B assay relative to control; conditions: M14, 48 h, read-out: Activity
Malme-3M = assay: Growth inhibition of human MALME-3M cells assessed as cell growth at 10^-4 M incubated for 48 hrs by sulforhodamine B assay relative to control; conditions: read-out: Activity
HCC 2998 [11] = assay: Growth inhibition of human HCC2998 cells assessed as cell growth at 10^-4 M incubated for 48 hrs by sulforhodamine B assay relative to control; conditions: HCC 2998, 48 h, read-out: Activity
RXF 393 = assay: Growth inhibition of human RXF393 cells assessed as cell growth at 10^-4 M incubated for 48 hrs by sulforhodamine B assay relative to control; conditions: RXF 393, 48 h, read-out: Activity
NCI-H522 = assay: Growth inhibition of human NCI-H522 cells assessed as cell growth at 10^-6 M incubated for 48 hrs by sulforhodamine B assay relative to control; conditions: NCI-H522, 48 h, read-out: Activity

Compound	growth at 0.01 µM (HCC 2998 [1])	growth at 0.1 µM (HCT-116)	growth at 0.01 µM (HL-60(TB))	growth at 1 µM (TK-10)	growth at 100 µM (NCI-H226)	growth at 100 µM (UACC-257)	growth at 100 µM (SF-539 [2])	growth at 10 µM (SF-295)	growth at 100 µM (HOP-62 [3])	growth at 10 µM (A549)	growth at 100 µM (COLO 205)	growth at 100 µM (EKVX [4])	growth at 10 µM (LOX IMVI [5])	growth at 10 µM (MDA-MB-468)	growth at 100 µM (A498)	growth at 10 µM (HOP-62 [6])	growth at 10 µM (RPMI-8226)	growth at 1 µM (T47D)	growth at 10 µM (UO-31)	growth at 10 µM (SF-539 [7])	also measured
C#C[C@@]1(O)[C@@H](CO)O[C@@H](n2cc(Cl)c3c(N)ncnc32)[C@@H]1O	92 to 99%	4 to 5%	83 to 85%	–	–	–	–	–	–	–	–	–	–	–	–	–	–	–	–	–	–
C#C[C@@]1(O)[C@@H](CO)O[C@@H](n2cc(Br)c3c(N)ncnc32)[C@@H]1O	86 to 99%	2 to 12%	81 to 82%	17 to 27%	23%	–	–	–	–	–	–	–	–	–	–	–	–	–	–	–	–
C#C[C@@]1(O)[C@@H](CO)O[C@@H](n2cc(I)c3c(N)ncnc32)[C@@H]1O	87 to 90%	22 to 34%	83%	34 to 39%	4 to 16%	–	–	–	–	–	–	–	–	–	–	–	–	–	–	–	–
C#C[C@@]1(O)[C@@H](CO)O[C@@H](n2ccc3c(N)ncnc32)[C@@H]1O	99%	92%	97%	88%	-61%	-62%	-82%	-28%	-10%	4%	-72%	-26%	-87%	-58%	-47%	-9%	7%	30%	-55%	-48%	growth at 1 µM (LOX IMVI [8]): 40%; growth at 100 µM (NCI-H23): -35%; growth at 1 µM (SK-OV-3): 52%; growth at 10 µM (IGROV-1): -19%; growth at 10 µM (EKVX [9]): -24%; growth at 10 µM (SK-MEL-5): -95%; growth at 100 µM (786-0): -95%; growth at 100 µM (LOX IMVI [10]): -92%; growth at 100 µM (M14): -88%; growth at 100 µM (Malme-3M): -76%; growth at 100 µM (HCC 2998 [11]): -78%; growth at 100 µM (RXF 393): -92%; growth at 1 µM (NCI-H522): 29%
C#C[C@@]1(O)[C@@H](CO)O[C@@H](n2cc(F)c3c(N)ncnc32)[C@@H]1O	98%	60%	93%	42%	-45%	-30%	-39%	-69%	-15%	-26%	-63%	-10%	-78%	-57%	-75%	-4%	-2%	-10%	-36%	-23%	growth at 1 µM (LOX IMVI [8]): 4%; growth at 100 µM (NCI-H23): -25%; growth at 1 µM (SK-OV-3): 12%; growth at 10 µM (IGROV-1): -33%; growth at 10 µM (EKVX [9]): 1%; growth at 10 µM (SK-MEL-5): -89%; growth at 100 µM (786-0): -36%; growth at 100 µM (LOX IMVI [10]): -90%; growth at 100 µM (M14): -47%; growth at 100 µM (Malme-3M): -47%; growth at 100 µM (HCC 2998 [11]): -71%; growth at 100 µM (RXF 393): -49%; growth at 1 µM (NCI-H522): -2%
